For series [1] the following is noted: physiological common salt solution, +25° C, cited from earlier work.
The nature of series [2]: Storage stability of untreated reference sample. The class given is physicochemical. The settings on record: storage at +25° C.

The source of these data is US9180128B2, “Stable pharmaceutical compositions of 5,10-methylene tetrahydrofolate” (MERCK & CIE, priority 2003, dated 2015).

Read-outs that look alike come from different tables or passages of the source.

With `Nc1nc2c(c(=O)[nH]1)N1CN(c3ccc(C(=O)N[C@@H](CCC(=O)[O-])C(=O)O)cc3)C[C@H]1CN2.Nc1nc2c(c(=O)[nH]1)N1CN(c3ccc(C(=O)N[C@@H](CCC(=O)[O-])C(=O)O)cc3)C[C@H]1CN2.[Ca+2]` [calcium salt of 5,10-methylene-(6R,S)-tetrahydrofolic acid], the “% relative stability” value is 100.0% in series [1] (with the exclusion of air, 0 hours); 58.0% in series [1] (with the exclusion of air, 4.0 hours); 38.0% in series [1] (with the exclusion of air, 24.0 hours); 18.0% in series [1] (with the exclusion of air, 26.0 hours); 8.0% in series [1] (with the exclusion of air, 48.0 hours); 100.0% in series [1] (without the exclusion of air, 0 hours). Moreover, the “% relative stability” value in series [1] (without the exclusion of air, 4.0 hours) was 84%; in series [1] (without the exclusion of air, 24.0 hours), 12.0%; in series [1] (without the exclusion of air, 26.0 hours), 8.0%; in series [1] (without the exclusion of air, 48.0 hours), 6.0%.

For `Nc1nc2c(c(=O)[nH]1)N1CN(c3ccc(C(=O)N[C@@H](CCC(=O)[O-])C(=O)O)cc3)C[C@H]1CN2.Nc1nc2c(c(=O)[nH]1)N1CN(c3ccc(C(=O)N[C@@H](CCC(=O)[O-])C(=O)O)cc3)C[C@H]1CN2.[Ca+2]` [Co 751, calcium salt of 5,10-methylene-(6R)-tetrahydrofolic acid], the “% relative stability” value in series [2] (0 months) was 100.0%; in series [2] (0.5 months), 92.3%; in series [2] (1.0 months) it was 83.4%; in series [2] (1.75 months), 77.2%; in series [2] (2.5 months) it was 71.9%; in series [2] (4.5 months) it was 61.5%. In addition, the entries for the “% relative stability” value in series [2] (9.2 months) and in series [2] (19.0 months) were 49.1% and 43.0%, respectively.
